Reference: patent US20070128217A1 (priority 2003, published 2007)

What was measured:
[1] = system: antibodies in sera from SARS patients (sera 1a, 1b, 2, 6, 37, 62, London, SARS-yellow, SARS-green); type: binding, human; set-up: Binding of serum 6 to linear peptides of protein X1 of SARS-CoV Urbani / Binding of serum 37 to linear peptides of protein X1 of SARS-CoV Urbani / Binding of serum 6 to looped/cyclic peptide (PEPSCAN-ELISA) / Binding of serum 37 to looped/cyclic peptide (PEPSCAN-ELISA) / Binding of serum 37 to looped/cyclic peptides of protein X1 of SARS-CoV Urbani / Binding of serum 6 to linear peptides of protein X2 / Binding of serum 37 to linear peptides of protein X2 / Binding of serum 37 to looped/cyclic peptides of protein X2 of SARS-CoV Urbani / Binding of serum 6 to linear peptides of protein M of SARS-CoV Urbani / Binding of serum 37 to linear peptides of protein M of SARS-CoV Urbani / Binding of serum 6 to looped/cyclic peptides of protein M of SARS-CoV Urbani / Binding of serum 37 to looped/cyclic peptides of protein M of SARS-CoV Urbani / Binding of serum 6 to linear peptides of protein X3 of SARS-CoV Urbani / Binding of serum 37 to linear peptides of protein X3 of SARS-CoV Urbani / Binding of serum 37 to looped/cyclic peptides of protein X3 of SARS-CoV Urbani / Binding of serum 6 to linear peptides of protein X4 of SARS-CoV Urbani / Binding of serum 37 to linear peptides of protein X4 of SARS-CoV Urbani / Binding of serum 37 to looped/cyclic peptides of protein X4 of SARS-CoV Urbani / Binding of serum 6 to linear peptides of protein X5 of SARS-CoV Urbani / Binding of serum 37 to linear peptides of protein X5 of SARS-CoV Urbani / Binding of serum 37 to looped/cyclic peptides of protein X5 of SARS-CoV Urbani / Binding of serum 6 to linear peptides of protein N of SARS-CoV Urbani / Binding of serum 37 to linear peptides of protein N of SARS-CoV Urbani / Binding of serum 6 to linear peptide (PEPSCAN-ELISA) / Binding of serum 1a to looped/cyclic peptides of protein N of SARS-CoV Urbani / Binding of serum 1b to looped/cyclic peptides of protein N of SARS-CoV Urbani / Binding of serum 2 to looped/cyclic peptides of protein N of SARS-CoV Urbani / Binding of serum 6 to looped/cyclic peptides of protein N of SARS-CoV Urbani / Binding of serum 37 to looped/cyclic peptides of protein N of SARS-CoV Urbani / Binding of serum 62 to looped/cyclic peptides of protein N of SARS-CoV Urbani / Binding of serum London to looped/cyclic peptides of protein N of SARS-CoV Urbani / Binding of serum SARS-green to looped/cyclic peptides of protein N of SARS-CoV Urbani: unit not given here
[2] = system: control sera (pooled serum of ten healthy LUMC hospital workers; commercial negative donor pooled serum from the Dutch bloodbank); type: binding, human; set-up: Binding of Control serum LUMC to linear peptides / Binding of Control serum Blood-bank to linear peptides / Binding of Control serum LUMC to looped peptides / Binding of Control Serum Blood-Bank to Looped peptides / Binding of Control serum LUMC to linear peptides of the protein M of SARS-CoV Urbani / Binding of Control serum Blood-bank to linear peptides of the protein M of SARS-CoV Urbani / Binding of Control serum LUMC to looped peptides of the protein M of SARS-CoV Urbani / Binding of Control Serum Blood-Bank to Looped peptides of the protein M of SARS-CoV Urbani: unit not given here
[3] = system: rabbit serum obtained by immunizing a rabbit with the SARS-CoV strain Frankfurt 1; type: binding; set-up: Binding of a rabbit serum to linear peptides / Binding of a rabbit serum to looped peptides / Rabbit serum linear peptides / Rabbit serum looped peptides / Binding of a rabbit serum to linear peptides of protein N of SARS-CoV Urbani (Rabbit serum linear peptides) / Binding of a rabbit serum to looped/cyclic peptides of protein N of SARS-CoV Urbani (Rabbit serum looped peptides): unit not given here

RLFARTRSMWSFNPE
Binding of serum 1a to linear peptides of protein M of SARS-CoV Urbani [1]: 0.9
Binding of serum 1a to looped/cyclic peptides of protein M of SARS-CoV Urbani [1]: 0.7
Binding of serum 1b to linear peptides of protein M of SARS-CoV Urbani [1]: 0.9
Binding of serum 1b to looped/cyclic peptides of protein M of SARS-CoV Urbani [1]: 0.8
Binding of serum 2 to linear peptides of protein M of SARS-CoV Urbani [1]: 0.6
Binding of serum 2 to looped/cyclic peptides of protein M of SARS-CoV Urbani [1]: 0.5
Binding of serum 6 to linear peptides of protein M of SARS-CoV Urbani [1]: 0.4
Binding of serum 6 to looped/cyclic peptides of protein M of SARS-CoV Urbani [1]: 0.8
Binding of serum 37 to linear peptides of protein M of SARS-CoV Urbani [1]: 1.0
Binding of serum 37 to looped/cyclic peptides of protein M of SARS-CoV Urbani [1]: 0.6
Binding of serum 62 to linear peptides of protein M of SARS-CoV Urbani [1]: 0.9
Binding of serum 62 to looped/cyclic peptides of protein M of SARS-CoV Urbani [1]: 0.6
Binding of serum London to linear peptides of protein M of SARS-CoV Urbani [1]: 0.4
Binding of serum London to looped/cyclic peptides of protein M of SARS-CoV Urbani [1]: 0.2
Binding of serum SARS-green to linear peptides of protein M of SARS-CoV Urbani [1]: 0.5
Binding of serum SARS-green to looped/cyclic peptides of protein M of SARS-CoV Urbani [1]: 0.4
Binding of serum SARS-yellow to linear peptides of protein M of SARS-CoV Urbani [1]: 0.1
Binding of serum SARS-yellow to looped/cyclic peptides of protein M of SARS-CoV Urbani [1]: 0.4
Binding of Control Serum Blood-Bank to Looped peptides of the protein M of SARS-CoV Urbani [2]: 0.7
Binding of Control serum Blood-bank to linear peptides of the protein M of SARS-CoV Urbani [2]: 0.8
Binding of Control serum LUMC to linear peptides of the protein M of SARS-CoV Urbani [2]: 0.5
Binding of Control serum LUMC to looped peptides of the protein M of SARS-CoV Urbani [2]: 0.5
Rabbit serum linear peptides [3]: 0.4
Rabbit serum looped peptides [3]: 0.0

RMCKYTQSTALQELL
Binding of serum 1a to linear peptides of protein X2 [1]: 0.8
Binding of serum 1a to looped/cyclic peptides of protein X2 of SARS-CoV Urbani [1]: 0.7
Binding of serum 1b to linear peptides of protein X2 [1]: 0.7
Binding of serum 1b to looped/cyclic peptides of protein X2 of SARS-CoV Urbani [1]: 0.7
Binding of serum 2 to linear peptides of protein X2 [1]: 0.5
Binding of serum 2 to looped/cyclic peptides of protein X2 of SARS-CoV Urbani [1]: 0.4
Binding of serum 6 to linear peptides of protein X2 [1]: 0.4
Binding of serum 6 to looped/cyclic peptides of protein X2 of SARS-CoV Urbani [1]: 0.3
Binding of serum 37 to linear peptides of protein X2 [1]: 0.7
Binding of serum 37 to looped/cyclic peptides of protein X2 of SARS-CoV Urbani [1]: 0.4
Binding of serum 62 to linear peptides of protein X2 [1]: 0.8
Binding of serum 62 to looped/cyclic peptides of protein X2 of SARS-CoV Urbani [1]: 0.7
Binding of serum London to linear peptides of protein X2 [1]: 0.5
Binding of serum London to looped/cyclic peptides of protein X2 of SARS-CoV Urbani [1]: 0.2
Binding of serum SARS-green to linear peptides of protein X2 [1]: 0.6
Binding of serum SARS-green to looped/cyclic peptides of protein X2 of SARS-CoV Urbani [1]: 0.6
Binding of serum SARS-yellow to linear peptides of protein X2 [1]: 0.6
Binding of serum SARS-yellow to looped/cyclic peptides of protein X2 of SARS-CoV Urbani [1]: 0.3
Binding of Control Serum Blood-Bank to Looped peptides [2]: 0.7
Binding of Control serum Blood-bank to linear peptides [2]: 0.8
Binding of Control serum LUMC to linear peptides [2]: 0.7
Binding of Control serum LUMC to looped peptides [2]: 0.6
Binding of a rabbit serum to linear peptides [3]: 0.4
Binding of a rabbit serum to looped peptides [3]: 0.4

RPLMESELVIGAVII
Binding of serum 1a to linear peptides of protein M of SARS-CoV Urbani [1]: 0.8
Binding of serum 1b to linear peptides of protein M of SARS-CoV Urbani [1]: 0.6
Binding of serum 2 to linear peptides of protein M of SARS-CoV Urbani [1]: 0.7
Binding of serum 6 to linear peptides of protein M of SARS-CoV Urbani [1]: 0.3
Binding of serum 37 to linear peptides of protein M of SARS-CoV Urbani [1]: 0.6
Binding of serum 62 to linear peptides of protein M of SARS-CoV Urbani [1]: 0.9
Binding of serum London to linear peptides of protein M of SARS-CoV Urbani [1]: 0.4
Binding of serum SARS-green to linear peptides of protein M of SARS-CoV Urbani [1]: 0.3
Binding of serum SARS-yellow to linear peptides of protein M of SARS-CoV Urbani [1]: 0.1
Recognition of the peptide by sera of SARS-CoV infected individuals, and form (linear, looped/cyclic) in which it is recognized [1]: recognized in looped/cyclic form
Binding of Control Serum Blood-Bank to Looped peptides of the protein M of SARS-CoV Urbani [2]: 0.8
Binding of Control serum Blood-bank to linear peptides of the protein M of SARS-CoV Urbani [2]: 0.6
Binding of Control serum LUMC to linear peptides of the protein M of SARS-CoV Urbani [2]: 0.5
Binding of Control serum LUMC to looped peptides of the protein M of SARS-CoV Urbani [2]: 0.8
Rabbit serum linear peptides [3]: 0.4
Rabbit serum looped peptides [3]: 0.2
